Results published in ChEMBL document CHEMBL4406797, “Histone acetyltransferase inhibitors: An overview in synthesis, structure-activity relationship and molecular mechanism” (Eur J Med Chem, 2019).
Each block holds one compound with its values, some of them ahead of it.

What was measured:
[1] = target: T1, Histone acetyltransferase p300 (Homo sapiens, UniProt Q09472); test: Inhibition of P300 (unknown origin)
CREB-binding protein [2] = target: T2, CREB-binding protein (Homo sapiens, UniProt Q92793); test: Inhibition of CBP (unknown origin) at 50 uM relative to control
T2 sequence (Q92793 2-2442 limits assumed): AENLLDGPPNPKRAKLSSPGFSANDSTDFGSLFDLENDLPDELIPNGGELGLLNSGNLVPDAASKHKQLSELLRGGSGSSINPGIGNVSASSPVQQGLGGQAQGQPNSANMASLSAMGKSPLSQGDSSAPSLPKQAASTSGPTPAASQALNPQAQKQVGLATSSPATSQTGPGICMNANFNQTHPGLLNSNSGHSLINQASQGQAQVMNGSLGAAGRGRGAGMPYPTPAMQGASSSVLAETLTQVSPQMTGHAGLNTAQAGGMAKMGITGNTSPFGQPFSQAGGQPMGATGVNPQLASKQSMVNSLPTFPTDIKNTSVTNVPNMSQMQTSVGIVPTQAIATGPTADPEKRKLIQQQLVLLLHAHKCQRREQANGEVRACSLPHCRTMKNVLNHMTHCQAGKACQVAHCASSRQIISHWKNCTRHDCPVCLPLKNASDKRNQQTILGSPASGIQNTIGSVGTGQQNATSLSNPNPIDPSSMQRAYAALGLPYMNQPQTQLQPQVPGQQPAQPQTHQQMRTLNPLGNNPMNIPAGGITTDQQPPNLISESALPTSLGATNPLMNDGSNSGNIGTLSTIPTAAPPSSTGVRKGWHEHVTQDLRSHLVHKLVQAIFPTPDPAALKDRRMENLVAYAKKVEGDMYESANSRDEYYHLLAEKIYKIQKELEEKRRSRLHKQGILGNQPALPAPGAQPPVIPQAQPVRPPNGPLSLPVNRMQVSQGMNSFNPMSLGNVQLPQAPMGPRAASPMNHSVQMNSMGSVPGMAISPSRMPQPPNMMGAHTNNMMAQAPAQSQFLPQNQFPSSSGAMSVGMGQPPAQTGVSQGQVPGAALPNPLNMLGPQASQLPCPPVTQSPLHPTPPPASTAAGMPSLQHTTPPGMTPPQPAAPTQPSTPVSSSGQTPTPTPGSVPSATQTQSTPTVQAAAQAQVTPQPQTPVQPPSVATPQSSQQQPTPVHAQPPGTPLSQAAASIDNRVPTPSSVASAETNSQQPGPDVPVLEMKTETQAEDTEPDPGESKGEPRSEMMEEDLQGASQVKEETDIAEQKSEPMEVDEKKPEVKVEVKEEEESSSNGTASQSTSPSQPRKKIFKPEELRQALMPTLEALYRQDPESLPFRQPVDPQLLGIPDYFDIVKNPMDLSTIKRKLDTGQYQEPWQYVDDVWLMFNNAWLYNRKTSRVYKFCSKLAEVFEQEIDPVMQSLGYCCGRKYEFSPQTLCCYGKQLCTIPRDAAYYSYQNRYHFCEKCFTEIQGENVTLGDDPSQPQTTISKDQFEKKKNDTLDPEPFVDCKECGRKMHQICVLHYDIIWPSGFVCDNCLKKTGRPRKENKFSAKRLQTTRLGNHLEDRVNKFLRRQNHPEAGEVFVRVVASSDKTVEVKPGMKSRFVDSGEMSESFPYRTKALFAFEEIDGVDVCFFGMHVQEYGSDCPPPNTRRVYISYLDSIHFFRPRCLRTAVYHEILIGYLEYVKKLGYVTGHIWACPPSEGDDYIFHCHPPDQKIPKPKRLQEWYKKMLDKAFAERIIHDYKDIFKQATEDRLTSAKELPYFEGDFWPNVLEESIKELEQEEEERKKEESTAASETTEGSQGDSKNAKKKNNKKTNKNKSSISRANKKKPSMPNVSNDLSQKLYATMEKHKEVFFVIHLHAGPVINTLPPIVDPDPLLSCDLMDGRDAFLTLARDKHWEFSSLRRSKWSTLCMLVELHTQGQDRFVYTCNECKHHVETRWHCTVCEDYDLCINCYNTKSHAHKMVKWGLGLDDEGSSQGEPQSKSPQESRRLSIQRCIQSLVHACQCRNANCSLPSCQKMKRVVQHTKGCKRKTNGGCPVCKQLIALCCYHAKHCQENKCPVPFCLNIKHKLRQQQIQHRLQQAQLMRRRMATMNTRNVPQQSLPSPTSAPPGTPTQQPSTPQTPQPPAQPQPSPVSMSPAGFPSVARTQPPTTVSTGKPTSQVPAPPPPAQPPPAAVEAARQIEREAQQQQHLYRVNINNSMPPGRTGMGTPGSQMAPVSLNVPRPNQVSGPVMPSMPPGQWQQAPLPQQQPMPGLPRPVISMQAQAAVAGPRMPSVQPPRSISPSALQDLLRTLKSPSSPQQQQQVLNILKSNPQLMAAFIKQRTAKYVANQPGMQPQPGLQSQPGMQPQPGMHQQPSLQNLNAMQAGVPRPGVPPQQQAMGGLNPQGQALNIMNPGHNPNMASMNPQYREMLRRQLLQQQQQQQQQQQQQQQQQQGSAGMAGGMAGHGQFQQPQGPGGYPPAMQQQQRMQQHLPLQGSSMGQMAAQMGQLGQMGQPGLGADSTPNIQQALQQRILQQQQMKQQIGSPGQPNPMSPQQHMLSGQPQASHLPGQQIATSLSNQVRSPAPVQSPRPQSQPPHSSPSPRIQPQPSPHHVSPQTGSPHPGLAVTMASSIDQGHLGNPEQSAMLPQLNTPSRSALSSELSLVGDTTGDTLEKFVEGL

[3] = target: T3, Histone acetyltransferase KAT7 (Homo sapiens, UniProt O95251); conditions: 10 uM
T3 sequence (O95251 whole entry): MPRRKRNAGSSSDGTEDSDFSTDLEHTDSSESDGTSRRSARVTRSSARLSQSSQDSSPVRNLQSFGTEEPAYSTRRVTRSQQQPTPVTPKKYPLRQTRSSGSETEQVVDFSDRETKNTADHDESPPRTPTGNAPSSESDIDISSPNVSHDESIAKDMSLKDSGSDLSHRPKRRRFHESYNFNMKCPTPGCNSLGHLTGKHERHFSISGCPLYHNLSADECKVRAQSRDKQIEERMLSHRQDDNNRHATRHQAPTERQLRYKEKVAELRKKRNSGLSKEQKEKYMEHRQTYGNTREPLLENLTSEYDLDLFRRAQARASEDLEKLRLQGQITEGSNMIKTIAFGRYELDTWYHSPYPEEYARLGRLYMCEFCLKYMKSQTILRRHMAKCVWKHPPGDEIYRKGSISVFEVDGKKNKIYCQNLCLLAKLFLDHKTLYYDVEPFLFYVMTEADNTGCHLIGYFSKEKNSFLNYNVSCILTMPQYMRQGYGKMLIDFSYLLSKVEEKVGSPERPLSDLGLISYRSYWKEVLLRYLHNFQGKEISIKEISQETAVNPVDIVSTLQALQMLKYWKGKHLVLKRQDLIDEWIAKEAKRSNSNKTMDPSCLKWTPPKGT

[4] = target: T3, Histone acetyltransferase KAT7; test: Inhibition of KAT7 (unknown origin)
[5] = target: T3, Histone acetyltransferase KAT7; conditions: 10 uM; remark: listed apart in the source
[6] = target: Histone acetyltransferase KAT5 (Homo sapiens, UniProt Q92993); test: Inhibition of KAT5 (unknown origin)
[7] = target: T1, Histone acetyltransferase p300; test: Displacement of [3H]-acetyl-CoA from P300 (unknown origin) using peptide as substrate after 60 mins
[8] = target: T4, Histone acetyltransferase KAT2B (Homo sapiens, UniProt Q92831); test: Inhibition of PCAF (unknown origin) at 100 uM relative to control
Target sequence in this assay (Q92831 whole entry, looked up): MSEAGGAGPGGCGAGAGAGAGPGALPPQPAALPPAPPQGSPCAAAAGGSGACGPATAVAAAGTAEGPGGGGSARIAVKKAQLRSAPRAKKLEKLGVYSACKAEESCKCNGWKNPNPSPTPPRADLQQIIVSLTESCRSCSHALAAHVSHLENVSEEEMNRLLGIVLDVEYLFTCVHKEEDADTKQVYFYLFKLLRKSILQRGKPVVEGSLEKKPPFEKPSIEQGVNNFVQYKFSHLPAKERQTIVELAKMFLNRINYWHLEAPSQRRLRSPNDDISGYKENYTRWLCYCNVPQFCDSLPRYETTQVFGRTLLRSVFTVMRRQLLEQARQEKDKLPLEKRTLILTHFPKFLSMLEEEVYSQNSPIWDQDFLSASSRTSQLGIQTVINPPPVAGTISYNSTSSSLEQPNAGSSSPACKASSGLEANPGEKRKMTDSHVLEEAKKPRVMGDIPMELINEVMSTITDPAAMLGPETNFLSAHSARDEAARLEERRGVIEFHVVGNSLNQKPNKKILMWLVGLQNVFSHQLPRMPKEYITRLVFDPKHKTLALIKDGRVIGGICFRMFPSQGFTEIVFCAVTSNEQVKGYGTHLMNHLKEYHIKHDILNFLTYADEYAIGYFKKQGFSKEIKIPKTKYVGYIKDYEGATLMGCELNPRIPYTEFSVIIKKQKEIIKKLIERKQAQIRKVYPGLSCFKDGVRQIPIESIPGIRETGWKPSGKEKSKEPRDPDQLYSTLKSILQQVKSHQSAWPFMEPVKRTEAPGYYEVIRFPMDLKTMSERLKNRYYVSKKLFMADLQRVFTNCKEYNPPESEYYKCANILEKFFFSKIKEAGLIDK

A549 = test: Cytotoxicity against human A549 cells assessed as reduction in cell viability by SRB assay; format: functional, cell-based
MDA-MB-231 = test: Cytotoxicity against human MDA-MB-231 cells assessed as reduction in cell viability by SRB assay; format: functional, cell-based
HeLa = test: Cytotoxicity against human HeLa cells assessed as reduction in cell viability by SRB assay; format: functional, cell-based
Hep 3B2 = test: Cytotoxicity against human Hep3B cells assessed as reduction in cell viability by SRB assay; format: functional, cell-based
HT-29 = test: Cytotoxicity against human HT-29 cells assessed as reduction in cell viability by SRB assay; format: functional, cell-based
HCT cell line = test: Cytotoxicity against human HCT cells assessed as reduction in cell viability by SRB assay; format: functional, cell-based
[9] = target: T4, Histone acetyltransferase KAT2B; test: Inhibition of PCAF (unknown origin) at 100 uM by CPM dye-based fluorescence assay relative to control
Target sequence in this assay (Q92831 whole entry, looked up): as above

[10] = target: T4, Histone acetyltransferase KAT2B; test: Displacement of [3H]-acetyl-CoA from recombinant PCAF (unknown origin) expressed in baculovirus expression system preincubated for 10 mins followed by substrate addition measured after 10 mins
Target sequence in this assay (Q92831 whole entry): as the sequence (Q92831 whole entry, looked up) above

[11] = target: T4, Histone acetyltransferase KAT2B; test: Inhibition of PCAF in human HeLa cells using [3H]-acetyl-CoA as substrate preincubated for 10 mins followed by substrate addition measured after 10 mins by liquid scintillation counting analysis; format: cell-based
Target sequence in this assay (Q92831 whole entry): as the sequence (Q92831 whole entry, looked up) above

[12] = target: T4, Histone acetyltransferase KAT2B; test: Inhibition of recombinant GST-tagged PCAF (32 residues) (unknown origin) expressed in Escherichia coli using radiolabelled acetyl-CoA as substrate after 20 mins by TopCount scintillation counting analysis
Target sequence in this assay (Q92831 whole entry): as the sequence (Q92831 whole entry, looked up) above

[13] = target: T4, Histone acetyltransferase KAT2B; test: Inhibition of recombinant GST-tagged PCAF (32 residues) (unknown origin) expressed in Escherichia coli assessed as reduction in H4K8 acetylation using radiolabelled acetyl-CoA as substrate after 20 mins by TopCount scintillation counting analysis relative to control
Target sequence in this assay (Q92831 whole entry, looked up): as above

[14] = target: T4, Histone acetyltransferase KAT2B; test: Inhibition of recombinant GST-tagged PCAF (32 residues) (unknown origin) expressed in Escherichia coli assessed as reduction in H3K9 acetylation using radiolabelled acetyl-CoA as substrate after 20 mins by TopCount scintillation counting analysis relative to control
Target sequence in this assay (Q92831 whole entry, looked up): as above

[15] = target: T1, Histone acetyltransferase p300; test: Inhibition of human P300 (1284 to1673 residues) catalytic domain expressed in Escherichia coli by SPR analysis
[16] = target: CREB-binding protein/Histone acetyltransferase p300 (Homo sapiens, UniProt Q09472+Q92793); test: Inhibition of p300 (unknown origin)/CBP (unknown origin); format: protein assay
[17] = Inhibition of HAT (unknown origin); design: species or system Homo sapiens
CREB-binding protein [18] = target: T2, CREB-binding protein; test: Inhibition of recombinant CBP (unknown origin) at 500 uM using H3 peptide as substrate after 30 mins in presence of acetyl-CoA by fluorescence assay relative to control
[19] = target: T4, Histone acetyltransferase KAT2B; test: Inhibition of PCAF (unknown origin) relative to control; conditions: concentration not given here
Target sequence in this assay (Q92831 whole entry, looked up): as above

[20] = target: Histone acetyltransferase KAT2A (Homo sapiens) (UniProt Q92830); test: Inhibition of GCN5 (unknown origin) relative to control; conditions: concentration not given here
[21] = target: Histone deacetylase 1 (Homo sapiens) (UniProt Q13547); test: Inhibition of HDAC1 (unknown origin) relative to control; conditions: concentration not given here
Sequence of Histone deacetylase 1 (Homo sapiens) (Q13547 whole entry): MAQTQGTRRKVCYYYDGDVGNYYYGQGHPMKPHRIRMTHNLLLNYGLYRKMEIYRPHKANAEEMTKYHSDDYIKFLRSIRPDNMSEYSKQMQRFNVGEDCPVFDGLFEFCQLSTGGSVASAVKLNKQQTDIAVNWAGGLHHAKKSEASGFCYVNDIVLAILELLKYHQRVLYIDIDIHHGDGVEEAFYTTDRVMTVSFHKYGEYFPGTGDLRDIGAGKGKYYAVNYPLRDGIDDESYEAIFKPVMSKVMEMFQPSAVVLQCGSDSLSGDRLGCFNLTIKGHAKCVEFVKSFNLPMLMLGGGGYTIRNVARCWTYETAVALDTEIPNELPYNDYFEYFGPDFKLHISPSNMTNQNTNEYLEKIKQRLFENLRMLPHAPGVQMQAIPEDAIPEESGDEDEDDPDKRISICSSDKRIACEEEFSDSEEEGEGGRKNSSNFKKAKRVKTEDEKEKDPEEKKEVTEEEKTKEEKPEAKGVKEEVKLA

U-937 = test: Induction of apoptosis in human U937 cells relative to control; format: functional

IC50 [1]: > 30 µM
Compound: COc1ccc(S(=O)(=O)ON=C2C=C(C)C(=O)C(C)=C2)cc1

inhibition (CREB-binding protein [2]): 81%
Compound: CCCCCc1nc2ccccc2c(O)c1C(=O)O

inhibition [3]: 49%
IC50 [4]: > 200 µM
inhibition [5]: 49%
IC50 [6]: > 200 µM
Compound: O=C(NNS(=O)(=O)c1ccc2ccccc2c1)c1ccccc1F

IC50 [7]: < 10 µM
Compound: COc1cc2c(cc1OC)C1Cc3ccc(OC)c(OC)c3C[N+]1(Cc1ccccc1)CCC2 (centres undefined)

inhibition [8]: 79%
inhibition [9]: 79%
Compound: CCCCCCCCCCCCCC(=O)Nc1ccccc1C(=O)Nc1cccc(C(=O)O)c1
IC50 (A549): 25 to 50 µM
IC50 (MDA-MB-231): 25 to 50 µM
IC50 (HeLa): 25 to 50 µM
IC50 (Hep 3B2): 25 to 50 µM
IC50 (HT-29): 25 to 50 µM
IC50 (HCT cell line): 25 to 50 µM

IC50 [12]: 2.2 µM
inhibition [13]: 55.5%
inhibition [14]: 38.6%
Compound: O=c1cc(Cl)sn1-c1ccc([N+](=O)[O-])cc1

IC50 [1]: 57.5 µM
Compound: C#CCNCCCCCOc1ccc2nc(C)c(C(=O)OCC)cc2c1

IC50 [7]: 1.8 to 44 µM
Compound: COc1ccc2c(c1OC)C[N+]1(Cc3ccccc3)CCCc3cc4c(cc3C1C2)OCO4 (centres undefined)

IC50 [17]: 0.225 µM
Compound: C#CCN(Cc1ccc2[nH]c(N)nc(=O)c2c1)c1ccc(C(=O)N[C@@H](CCC(=O)O)C(=O)O)cc1

inhibition (CREB-binding protein [18]): > 80%
Compound: N#Cc1cccc(/C=C2\CCC/C(=C\c3cccc(C#N)c3)C2=O)c1

IC50 [1]: 3.4 µM
Compound: CC(=O)N1CC(C)Sc2cc(S(=O)(=O)NCc3ccccc3)ccc21 (centres undefined)

Second part, the compound before the results:

Compound: CCCCC[C@H](O)CC[C@H]1C(=O)C=C[C@@H]1C/C=C/CCCC(=O)O
IC50 [1]: > 2 µM

Compound: CC1=CC(=O)c2c(O)cccc2C1=O [PLUMBAGIN]
IC50 [10]: > 50 µM
IC50 [11]: > 50 µM

Compound: CCCCCCCCCCCCCCCC(=O)Nc1ccccc1C(=O)Nc1cccc(C(=O)O)c1
IC50 (A549): 25 to 50 µM
IC50 (MDA-MB-231): 25 to 50 µM
IC50 (HeLa): 25 to 50 µM
IC50 (Hep 3B2): 25 to 50 µM
IC50 (HT-29): 25 to 50 µM
IC50 (HCT cell line): 25 to 50 µM

Compound: CCCCCCCCCCCCCCC=C(C(=O)O)C(=O)O
IC50 [15]: 1.1 µM

Compound: Oc1cc(O)c2cc(O)c(-c3cc(O)c(O)c(O)c3)[o+]c2c1.[Cl-] [DELPHINIDIN CHLORIDE]
IC50 [16]: 30 µM

Compound: CCCCCCCCCCCCCCCC(=O)Nc1ccccc1C(=O)Nc1ccc(C(=O)O)cc1
IC50 (A549): 25 to 50 µM
IC50 (MDA-MB-231): 25 to 50 µM
IC50 (HeLa): 25 to 50 µM
IC50 (Hep 3B2): 25 to 50 µM
IC50 (HT-29): 25 to 50 µM
IC50 (HCT cell line): 25 to 50 µM

Compound: COc1cc2c(cc1OC)C[N+]1(Cc3ccccc3)CCCc3cc(OC)c(OC)cc3C1C2 (centres undefined)
IC50 [7]: < 10 µM

Compound: CCCCCCCCCCCCCC(=O)Nc1ccccc1C(=O)Nc1ccc(C(=O)O)cc1
IC50 (A549): 25 to 50 µM
IC50 (MDA-MB-231): 25 to 50 µM
IC50 (HeLa): 25 to 50 µM
IC50 (Hep 3B2): 25 to 50 µM
IC50 (HT-29): 25 to 50 µM
IC50 (HCT cell line): 25 to 50 µM

Compound: CC(C)=CC[C@H]1C[C@@]23C[C@@H](CC=C(C)C)C(C)(C)[C@@](CC=C(C)C)(C(=O)C(C(=O)c4ccc(OS(C)(=O)=O)c(OS(C)(=O)=O)c4)=C2OC1(C)C)C3=O
inhibition [19]: < 10%
inhibition [20]: < 10%
inhibition [21]: < 10%
IC50 [1]: 5 to 7 µM

Compound: CCOC(=O)c1c(C)nc2ccccc2c1O
Activity (U-937): 27%

Compound: Cc1cc(/C=C2\CCC/C(=C\c3cc(C)c(O)c(C)c3)C2=O)cc(C)c1O
inhibition (CREB-binding protein [18]): 40%

Compound: COc1ccc2cc3[n+](cc2c1OC)CCCc1cc2c(cc1-3)OCO2
IC50 [7]: 1.8 to 44 µM
